Assay results from US6476047B2, “Anellated dihydropyridines for the treatment of chronic pain” (Boehringer Ingelheim Pharma KG, priority 2000, dated 2002).
Where a name gives a salt, the structure may show the parent alone. Values belong to the compound of their own block, whether it stands above or below them.

Assays:
[1] = biological target: T1, N-type calcium channels in HEK-293 cell (Homo sapiens, UniProt Q00975); assay: Test A: Calcium imaging, inhibition of N-type calcium channels (FLUO-3, 80 mM K+ depolarisation); format: cell-based; settings: FLUO-3 charged recombinant HEK-293 cells, potassium depolarisation (80 mM K+)
T1 construct: expressed in transfected cells; host or cells: HEK-293 (clone HEK-293-N26)
T1 sequence (Q00975 whole entry): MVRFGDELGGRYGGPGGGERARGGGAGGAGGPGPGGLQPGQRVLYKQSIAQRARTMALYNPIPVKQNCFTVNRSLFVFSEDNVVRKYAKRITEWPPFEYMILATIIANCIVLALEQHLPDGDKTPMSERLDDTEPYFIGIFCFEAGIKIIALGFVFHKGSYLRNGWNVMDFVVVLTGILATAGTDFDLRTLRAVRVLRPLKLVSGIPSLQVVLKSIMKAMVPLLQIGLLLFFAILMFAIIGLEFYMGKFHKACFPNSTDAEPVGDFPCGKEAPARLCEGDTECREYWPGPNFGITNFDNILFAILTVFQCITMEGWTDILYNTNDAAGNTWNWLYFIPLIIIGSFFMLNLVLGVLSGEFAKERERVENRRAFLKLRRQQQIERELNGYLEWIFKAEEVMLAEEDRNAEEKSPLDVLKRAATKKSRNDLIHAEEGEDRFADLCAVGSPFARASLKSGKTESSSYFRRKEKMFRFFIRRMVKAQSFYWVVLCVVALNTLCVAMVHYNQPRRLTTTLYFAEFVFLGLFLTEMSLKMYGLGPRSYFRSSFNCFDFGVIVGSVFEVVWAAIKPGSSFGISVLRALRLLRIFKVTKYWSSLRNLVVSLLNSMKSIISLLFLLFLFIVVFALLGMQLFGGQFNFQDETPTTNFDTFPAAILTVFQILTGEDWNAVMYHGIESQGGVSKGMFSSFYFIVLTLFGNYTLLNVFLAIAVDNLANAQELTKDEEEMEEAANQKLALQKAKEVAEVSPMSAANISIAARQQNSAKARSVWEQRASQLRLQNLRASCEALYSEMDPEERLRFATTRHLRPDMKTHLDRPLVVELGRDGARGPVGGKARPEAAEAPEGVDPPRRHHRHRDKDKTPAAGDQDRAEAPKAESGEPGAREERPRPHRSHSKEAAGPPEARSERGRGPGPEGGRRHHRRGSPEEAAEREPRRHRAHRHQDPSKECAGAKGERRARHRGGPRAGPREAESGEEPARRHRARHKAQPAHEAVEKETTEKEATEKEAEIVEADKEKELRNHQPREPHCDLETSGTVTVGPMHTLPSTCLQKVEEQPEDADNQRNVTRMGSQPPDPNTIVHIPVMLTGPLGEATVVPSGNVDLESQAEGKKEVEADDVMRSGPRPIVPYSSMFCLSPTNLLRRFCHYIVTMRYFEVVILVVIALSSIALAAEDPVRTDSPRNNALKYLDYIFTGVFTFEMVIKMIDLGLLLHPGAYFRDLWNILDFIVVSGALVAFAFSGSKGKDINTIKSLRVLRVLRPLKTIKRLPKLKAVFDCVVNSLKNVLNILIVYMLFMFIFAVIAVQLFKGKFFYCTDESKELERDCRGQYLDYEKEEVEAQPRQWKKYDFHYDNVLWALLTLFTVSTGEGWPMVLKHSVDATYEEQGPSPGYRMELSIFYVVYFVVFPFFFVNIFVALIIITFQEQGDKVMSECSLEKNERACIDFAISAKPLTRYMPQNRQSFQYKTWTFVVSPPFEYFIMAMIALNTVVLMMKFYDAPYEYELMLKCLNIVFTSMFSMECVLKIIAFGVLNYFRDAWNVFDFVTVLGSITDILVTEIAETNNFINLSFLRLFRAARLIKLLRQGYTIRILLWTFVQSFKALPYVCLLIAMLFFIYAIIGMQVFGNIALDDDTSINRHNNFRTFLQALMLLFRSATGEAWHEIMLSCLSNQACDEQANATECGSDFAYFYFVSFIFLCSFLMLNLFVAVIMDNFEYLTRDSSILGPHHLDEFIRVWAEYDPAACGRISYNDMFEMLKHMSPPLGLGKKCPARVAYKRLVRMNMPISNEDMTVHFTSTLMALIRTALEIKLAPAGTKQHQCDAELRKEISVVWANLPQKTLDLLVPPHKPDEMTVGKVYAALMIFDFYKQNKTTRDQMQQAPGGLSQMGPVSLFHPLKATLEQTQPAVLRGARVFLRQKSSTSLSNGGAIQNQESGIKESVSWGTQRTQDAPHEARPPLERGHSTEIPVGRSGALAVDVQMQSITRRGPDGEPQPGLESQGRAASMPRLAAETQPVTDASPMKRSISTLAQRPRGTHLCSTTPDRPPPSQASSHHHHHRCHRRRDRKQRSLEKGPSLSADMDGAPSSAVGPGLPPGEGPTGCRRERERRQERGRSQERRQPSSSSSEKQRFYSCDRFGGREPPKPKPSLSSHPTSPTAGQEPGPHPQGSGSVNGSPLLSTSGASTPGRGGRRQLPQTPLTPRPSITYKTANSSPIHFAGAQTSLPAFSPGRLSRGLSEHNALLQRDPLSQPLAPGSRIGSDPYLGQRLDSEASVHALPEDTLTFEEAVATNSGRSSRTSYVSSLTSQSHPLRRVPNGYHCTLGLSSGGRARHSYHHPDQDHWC
T1 sequence (P54289 25-956 partner limits assumed): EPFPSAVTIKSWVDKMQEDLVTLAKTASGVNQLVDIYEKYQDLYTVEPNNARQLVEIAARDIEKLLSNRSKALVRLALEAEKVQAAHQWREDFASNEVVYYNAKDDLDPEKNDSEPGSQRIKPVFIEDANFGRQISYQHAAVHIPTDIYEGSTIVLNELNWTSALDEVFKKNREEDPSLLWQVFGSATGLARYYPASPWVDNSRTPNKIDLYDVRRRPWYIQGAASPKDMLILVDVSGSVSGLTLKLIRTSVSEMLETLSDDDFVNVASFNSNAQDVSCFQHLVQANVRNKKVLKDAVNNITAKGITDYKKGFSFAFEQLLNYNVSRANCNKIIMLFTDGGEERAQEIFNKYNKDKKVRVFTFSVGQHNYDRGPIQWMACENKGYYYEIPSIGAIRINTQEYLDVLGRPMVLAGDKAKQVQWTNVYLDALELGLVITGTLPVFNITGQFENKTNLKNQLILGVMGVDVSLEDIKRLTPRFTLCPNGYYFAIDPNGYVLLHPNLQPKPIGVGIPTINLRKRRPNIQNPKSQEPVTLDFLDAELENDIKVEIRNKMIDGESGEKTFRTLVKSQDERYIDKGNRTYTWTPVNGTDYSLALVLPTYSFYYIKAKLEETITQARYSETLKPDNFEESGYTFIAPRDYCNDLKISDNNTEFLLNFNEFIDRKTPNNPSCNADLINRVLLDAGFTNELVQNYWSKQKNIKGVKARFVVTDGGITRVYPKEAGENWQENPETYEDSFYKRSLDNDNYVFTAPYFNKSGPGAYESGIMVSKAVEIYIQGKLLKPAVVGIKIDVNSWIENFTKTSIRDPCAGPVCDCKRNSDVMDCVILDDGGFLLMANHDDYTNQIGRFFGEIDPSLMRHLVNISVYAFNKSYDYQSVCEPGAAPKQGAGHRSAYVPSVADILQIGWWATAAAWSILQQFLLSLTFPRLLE
T1 sequence (P54289 957-1103 partner limits assumed): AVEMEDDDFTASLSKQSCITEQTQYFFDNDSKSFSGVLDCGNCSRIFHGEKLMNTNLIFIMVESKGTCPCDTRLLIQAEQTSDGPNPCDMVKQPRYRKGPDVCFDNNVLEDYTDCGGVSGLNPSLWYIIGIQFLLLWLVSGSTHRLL
T1 sequence (P54284 whole entry partner): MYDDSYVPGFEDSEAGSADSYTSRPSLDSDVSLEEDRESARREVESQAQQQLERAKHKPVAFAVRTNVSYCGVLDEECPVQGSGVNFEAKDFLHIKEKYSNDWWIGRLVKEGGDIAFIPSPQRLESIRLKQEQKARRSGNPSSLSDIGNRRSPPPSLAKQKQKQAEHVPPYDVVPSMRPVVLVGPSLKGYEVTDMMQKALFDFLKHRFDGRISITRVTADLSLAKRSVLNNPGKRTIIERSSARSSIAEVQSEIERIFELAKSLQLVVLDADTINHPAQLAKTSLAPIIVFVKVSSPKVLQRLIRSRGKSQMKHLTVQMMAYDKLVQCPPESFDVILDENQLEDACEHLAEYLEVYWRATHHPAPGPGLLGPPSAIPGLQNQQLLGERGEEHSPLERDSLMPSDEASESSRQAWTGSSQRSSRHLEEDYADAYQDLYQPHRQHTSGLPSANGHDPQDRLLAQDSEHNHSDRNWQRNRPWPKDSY
Text: (§1) The concentration of the half-maximum inhibition (IC50-values) for the selected substances is in the submicro- to micromolar range. Independently of this optical method of measurement, the inhibitory effect on the N-type calcium channels was confirmed independently, by an electrophysiological method, using the patch-clamp technique on the same type of cells (Test B).
Inhibition of N-type calcium channels in HEK-293 cell

[2] = biological target: T2, N-type calcium channel in HEK-293-N26 cells (Homo sapiens, UniProt Q00975); assay: Test B: Patch-clamp tests, N-type calcium channel blockade; format: cell-based
T2 construct: expressed in transfected cells; host or cells: HEK-293 (clone HEK-293-N26)
T2 sequence (Q00975 whole entry): as the sequence (Q00975 whole entry) above
T2 sequence (P54289 25-956 partner limits assumed): as the sequence (P54289 25-956 partner limits assumed) above
T2 sequence (P54289 957-1103 partner limits assumed): as the sequence (P54289 957-1103 partner limits assumed) above
T2 sequence (P54284 whole entry partner): as the sequence (P54284 whole entry partner) above
Text: as §1
Test B: Patch-clamp Tests
N-type calcium channel blockade in HEK-293-N26 cells

rats [3] = assay: Test C: Formalin paw test; format: in vivo; settings: po, rat, p.o., read-out: ED50 values Test C, inhibition of flinching
Description: Formalin Paw Test (Test C)
Male rats (Chbb: THOM) weighing 250-300 grams are used. 20 μl of a 2% formaldehyde solution is injected into the plantar region of the right hind paw. Immediately afterwards, the number of flinches (spasms of the affected hind paw) and the time spent licking the affected paw are recorded. After 5 minutes in each case the values are collated into epochs. Time-activity curves for flinches and licking are plotted from the epoch values. Typically, two phases of the formalin activity (flinches, licking) are observed. A first phase of 0-10 minutes and a second phase of 10-60 minutes. Between the two phases the number of flinches and the duration of licking fall towards 0 (interphase). The areas under the curve for the first phase and for the second phase are determined from the timeactivity curves. Usually 5 animals are used in each case for the control, placebo and dose of active substance. The results of the doses of active substance are compared with those of the control and ED50 values are calculated. ED50 is the dose at which the control values are inhibited by 50%.
Test C: Formalin-paw Test (Rat)
Inhibition of flinching (ED50 values in mg/kg; p.o.)

rats [4] = assay: Test D: Chronic Constriction Injury (CCI, Bennett model), mechanohyperalgesia; format: in vivo; settings: po, rat
Text: Chronic Constriction Injury (CCI, Bennett Model) (Test D)
The principle of the method is producing hyperalgesia and allodynia in the plantar region (the sole of the hind paw). Sprague-Dawley rats (Harlan) weighing 250-350 grams are used.
Under anaesthetic, four loose ligatures are placed on the sciatic nerve of the left hind paw at intervals of 2.5 mm in such a way that the perinerval circulation is affected but not prevented. This leads to extravasation and oedema, resulting in neuropathy of the nerves which innervate the planter region. The right hind paw is treated in the same way without the ligatures. Control tests for allodynia and/or hyperalgesia are carried out without the administration of any substance before and 8-10 days after the operation. Then substance tests are carried out at intervals of 2-3 days. The effects of the substance on the various parameters and ED50 values are calculated (=doses which inhibit by 50% the allodynic or hyperalgesic effects of the stimulation).
Mechano-hyperalgesia (Pin Prick)
The animals are placed in cages with a wire mesh base. Using a blunt needle (e.g. a large safety pin) the skin of the sole of the paw (Plantar-region) is touched so that an indentation is only just produced. Similarly, the sole of the paw is pinched gently with forceps. […] The number and duration of positive reactions of the operated and control paws are measured. […]

SMILES: CCCCCCOc1ccc(C2=NCC(C)(C)c3ccccc32)cc1 [Example 11]
IC50 [1]: 3260 nM

SMILES: COc1cc2c(c(OC)c1OC)CCN=C2c1ccc(Oc2ccccc2)cc1 (as salt: salt) [Example 3]
melting point: 173 to 175 °C

SMILES: COc1cc2c(cc1OC)C(C)(C)CN=C2c1ccc(Oc2ccc(C(F)(F)F)cc2)cc1 [Example 5]
IC50 [1]: 820 nM | IC50 [2]: 1330 nM | ED50 (rats [3]): 15 mg/kg | ED50 (rats [4]): 10 mg/kg

SMILES: COc1cc2c(c(OC)c1OC)CCN=C2c1ccc(Oc2ccccc2)cc1 [Example 3]
IC50 [1]: 1940 nM

SMILES: CCCCCCOc1ccc(C2=NCCc3cc(OC)c(OC)cc32)cc1 (as salt: salt) [Example 2]
melting point: 172 °C

SMILES: CCCCCCOc1ccc(C2=NCC(C)(C)c3ccccc32)cc1 (as salt: salt) [Example 11]
melting point: 186 to 187 °C

SMILES: COc1cc2c(cc1OC)C(C)(C)CN=C2c1ccc(Oc2ccc(C(F)(F)F)cc2)cc1 (as salt: salt) [Example 5]
melting point: 195 to 198 °C

SMILES: COc1cc2c(cc1OC)C(C)(C)CN=C2c1cccc(Oc2ccccc2)c1 [Example 15]
IC50 [1]: 1620 nM

SMILES: COc1cc2c(cc1OC)C(C)(C)CN=C2c1ccc(Oc2ccccc2)cc1 [Example 4]
IC50 [1]: 1830 nM | melting point: 141 to 142 °C

SMILES: COc1cc2c(cc1OC)C(c1ccc(Oc3ccc(C(F)(F)F)cc3)cc1)=NCC2 (as salt: salt) [Example 6]
melting point: 218 °C

SMILES: CCCCCCOc1ccc(C2=NCCc3cc(OC)c(OC)cc32)cc1 [Example 2]
IC50 [1]: 1200 nM | IC50 [2]: 1090 nM

SMILES: COc1cc2c(cc1OC)C(C)(C)CN=C2c1cccc(Oc2ccccc2)c1 (as salt: salt) [Example 15]
melting point: 181 °C

SMILES: FC(F)(F)c1ccc(Oc2ccc(C3=NCCc4ccccc43)cc2)cc1 (as salt: salt) [Example 17]
melting point: 234 to 235 °C

SMILES: COc1cc2c(cc1OC)C(c1ccc(Oc3ccc(C(F)(F)F)cc3)cc1)=NCC2 [Example 6]
IC50 [1]: 940 nM | IC50 [2]: 1120 nM

SMILES: FC(F)(F)c1ccc(Oc2ccc(C3=NCCc4ccccc43)cc2)cc1 [Example 17]
IC50 [2]: 8200 nM

SMILES: COc1cc2c(cc1OC)C(c1ccc(Oc3ccccc3)cc1)=NCC2 (as salt: salt) [Example 1]
melting point: 209 to 210 °C

SMILES: COc1cc2c(cc1OC)C(c1ccc(Oc3ccccc3)cc1)=NCC2 [Example 1]
IC50 [1]: 1860 nM | IC50 [2]: 1800 nM | ED50 (rats [3]): 10 mg/kg

Second part, led by results:

IC50 [1]: 3980 nM | IC50 [2]: 260 nM
SMILES: CC1(C)CN=C(c2ccccc2Oc2cc(C(F)(F)F)cc(C(F)(F)F)c2)c2ccccc21 [Example 9, 3,4-dihydro-4,4-dimethyl-1-[2-(3,5-ditrifluoromethyl)phenoxy]phenyl-isoquinoline hydrochloride]
ED50 (rats [3]): 10 mg/kg

IC50 [1]: 1260 nM | IC50 [2]: 1000 nM
SMILES: COc1cc2c(cc1OC)C(C)(C)CN=C2c1ccc(Oc2cc(C(F)(F)F)cc(C(F)(F)F)c2)cc1 [Example 7]

IC50 [2]: 1220 nM
SMILES: CC1(C)CN=C(c2ccc(Oc3cc(C(F)(F)F)cc(C(F)(F)F)c3)cc2)c2ccccc21 [Example 16]

melting point: 215 °C
SMILES: COc1cc2c(cc1OC)C(c1ccc(Oc3cc(C(F)(F)F)cc(C(F)(F)F)c3)cc1)=NCC2 (as salt: salt) [Example 10]

IC50 [1]: 1950 nM
SMILES: COc1cc2c(cc1OC)C(c1ccc(Oc3cc(C(F)(F)F)cc(C(F)(F)F)c3)cc1)=NCC2 [Example 10]

melting point: 172 to 173 °C
SMILES: COc1cc2c(cc1OC)C(C)(C)CN=C2c1ccccc1Oc1cc(C(F)(F)F)cc(C(F)(F)F)c1 (as salt: salt) [Example 8]

IC50 [1]: 3160 nM | IC50 [2]: 1700 nM
SMILES: COc1cc2c(cc1OC)C(C)(C)CN=C2c1ccccc1Oc1cc(C(F)(F)F)cc(C(F)(F)F)c1 [Example 8]

melting point: 210 to 211 °C
SMILES: COc1cc2c(cc1OC)C(C)(C)CN=C2c1cccc(Oc2cc(C(F)(F)F)cc(C(F)(F)F)c2)c1 (as salt: salt) [Example 14]

IC50 [1]: 1610 nM
SMILES: COc1cc2c(cc1OC)C(C)(C)CN=C2c1cccc(Oc2cc(C(F)(F)F)cc(C(F)(F)F)c2)c1 [Example 14]

melting point: 211 to 212 °C
SMILES: CC1(C)CN=C(c2ccccc2Oc2cc(C(F)(F)F)cc(C(F)(F)F)c2)c2ccccc21 (as salt: hydrochloride) [Example 9, 3,4-dihydro-4,4-dimethyl-1-[2-(3,5-ditrifluoromethyl)phenoxy]phenyl-isoquinoline hydrochloride]

melting point: 217 to 218 °C
SMILES: CC1(C)CN=C(c2ccc(Oc3cc(C(F)(F)F)cc(C(F)(F)F)c3)cc2)c2ccccc21 (as salt: salt) [Example 16]

IC50 [1]: 5540 nM | IC50 [2]: 1600 nM
SMILES: COc1ccc2c(c1)C(C)(C)CN=C2c1ccccc1Oc1cc(C(F)(F)F)cc(C(F)(F)F)c1 [Example 12]

melting point: 197 °C
SMILES: COc1cc2c(cc1OC)C(C)(C)CN=C2c1ccc(Oc2cc(C(F)(F)F)cc(C(F)(F)F)c2)cc1 (as salt: salt) [Example 7]

melting point: 122 to 123 °C
SMILES: COc1ccc2c(c1)C(C)(C)CN=C2c1ccccc1Oc1cc(C(F)(F)F)cc(C(F)(F)F)c1 (as salt: salt) [Example 12]
